Measured values as given in patent US20250304563A1, “ACTIVATORS OF EFFECTOR T CELLS” (Orum Therapeutics, Inc., priority 2022, published 2025).

Biological target: Cbl-b (36-427 aa truncated form, N-terminus Avi-tag) (Homo sapiens (Human), UniProt Q13191)
Assay: Cbl-b binding: TR-FRET displacement of BODIPY-FL probe
Method: Compounds were assessed for binding activity to Cbl-b by their ability to compete with and displace a probe comprised of BODIPY-FL fluorophore conjugated to a Cbl-b inhibitor (see Example 54 in WO2020264398). In the assay, a 36-427 aa truncated form of Cbl-b with an N-terminus Avi-tag was incubated 20 mM HEPES pH 7.5, 150 mM NaCl, 0.01% Triton X-100, 0.1% BSA, 0.5 mM TCEP buffer with streptavidin-terbium (Cisbio). After one hour of incubation at room temperature, 1 uM each of fluorescent probe and compound were combined with the reaction mixture. Compounds with Cbl-b binding activity competitively displace the fluorophore tagged inhibitor thereby disrupting the FRET signal from the terbium-BODIPY-FL complex. The reaction mixtures were incubated for one additional hour at room temperature to allow for competition between inhibitor and candidate compounds to occur. The time resolved FRET (TR-FRET) signal was then read at 520/620 […] (excitation/emission) using a Spectramax M5e plate reader (Molecular Devices) to measure probe displacement. Compounds with Cbl-b binding activity had decreased FRET signal owing to disruption of the terbium-BODIPY-FL FRET complex. Standard methods in PRISM were used to calculate the compound IC50 values from the experimental data.

Sequence of Cbl-b (36-427 aa truncated form, N-terminus Avi-tag) (Q13191 36-427): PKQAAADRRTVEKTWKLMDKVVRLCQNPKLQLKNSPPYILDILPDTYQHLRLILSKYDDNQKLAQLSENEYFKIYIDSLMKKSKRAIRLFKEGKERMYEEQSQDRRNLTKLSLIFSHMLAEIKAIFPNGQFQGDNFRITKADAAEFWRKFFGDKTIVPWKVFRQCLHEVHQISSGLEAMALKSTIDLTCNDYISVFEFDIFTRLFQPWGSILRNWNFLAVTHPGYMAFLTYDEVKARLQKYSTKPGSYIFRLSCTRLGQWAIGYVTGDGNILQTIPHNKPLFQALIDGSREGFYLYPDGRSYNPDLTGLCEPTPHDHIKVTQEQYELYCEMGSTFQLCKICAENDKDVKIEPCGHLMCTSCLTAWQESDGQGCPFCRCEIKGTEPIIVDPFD

SMILES	IC50 [nM]
CC1CC(c2cc(NCCN=[N+]=[N-])nc(N3Cc4c(cc(CN5CCC[C@H](C)C5)cc4C(F)(F)F)C3=O)c2)(c2nncn2C)C1 (stereo partly drawn) [Compound 168, 2-{6-[(2-azidoethyl)amino]-4-[(1r,3s)-3-methyl-1-(4-methyl-1,2,4-triazol-3-yl)cyclobutyl]pyridin-2-yl}-6-{[(3S)-3-methylpiperidin-1-yl]methyl}-4-(trifluoromethyl)-3H-isoindol-1-one]	20 to 100
CCNc1cc([C@]2(c3nncn3C)C[C@H](C)C2)cc(N2Cc3c(cc(CN4CCC[C@H](C)C4)cc3S(C)(=O)=O)C2=O)n1 [Compound 172, 2-[6-(ethylamino)-4-[(1r,3s)-3-methyl-1-(4-methyl-1,2,4-triazol-3-yl)cyclobutyl]pyridin-2-yl]-4-methanesulfonyl-6-{[(3S)-3-methylpiperidin-1-yl]methyl}-3H-isoindol-1-one; trifluoroacetic acid]	100 to 1000
CCNc1cc(C2(c3nncn3C)CC(C)C2)cc(N2Cc3c(cc(CN4CCC[C@H](C)C4)cc3[S+](C)[O-])C2=O)n1 (stereo partly drawn) [Compound 178, 2-[6-(ethylamino)-4-[(1r,3s)-3-methyl-1-(4-methyl-1,2,4-triazol-3-yl)cyclobutyl]pyridin-2-yl]-4-methanesulfinyl-6-{[(3S)-3-methylpiperidin-1-yl]methyl}-3H-isoindol-1-one]	100 to 1000
Cn1cnnc1CC1(c2cc(NCCC#N)nc(N3Cc4c(cc(CN5CCC6CC(O)CCC6C5)cc4C(F)(F)F)C3=O)c2)COC1 (centres unmarked) [Compound 183, 3-((6-(6-((6-hydroxyoctahydroisoquinolin-2 (1H)-yl)methyl)-1-oxo-4-(trifluoromethyl)isoindolin-2-yl)-4-(3-((4-methyl-4H-1,2,4-triazol-3-yl)methyl)oxetan-3-yl)pyridin-2-yl)amino)propanenitrile; trifluoroacetic acid]	100 to 1000
Cn1cnnc1CC1(c2cc(NCCC#N)nc(N3Cc4c(cc(CN5CCN(c6ccccc6O)CC5)cc4C(F)(F)F)C3=O)c2)COC1 [Compound 184, 3-((6-(6-((4-(2-hydroxyphenyl)piperazin-1-yl)methyl)-1-oxo-4-(trifluoromethyl)isoindolin-2-yl)-4-(3-((4-methyl-4H-1,2,4-triazol-3-yl)methyl)oxetan-3-yl)pyridin-2-yl)amino)propanenitrile; trifluoroacetic acid]	5.01 to 20
Cn1cnnc1CC1(c2cc(NCCC#N)nc(N3Cc4c(cc(CN5CCc6ccc(O)cc6C5)cc4C(F)(F)F)C3=O)c2)COC1 [Compound 185, 3-((6-(6-((7-hydroxy-3,4-dihydroisoquinolin-2 (1H)-yl)methyl)-1-oxo-4-(trifluoromethyl)isoindolin-2-yl)-4-(3-((4-methyl-4H-1,2,4-triazol-3-yl)methyl)oxetan-3-yl)pyridin-2-yl)amino)propanenitrile; trifluoroacetic acid]	5.01 to 20
CCNc1cc(C(CO)(CCl)Cc2nncn2C)cc(N2Cc3c(cc(CN4CCC[C@H](C)C4)cc3C(F)(F)F)C2=O)n1 (stereo partly drawn) [Compound 187, 2-(4-(1-chloro-3-hydroxy-2-((4-methyl-4H-1,2,4-triazol-3-yl)methyl)propan-2-yl)-6-(ethylamino)pyridin-2-yl)-6-(((S)-3-methylpiperidin-1-yl)methyl)-4-(trifluoromethyl)isoindolin-1-one; hydrochloric acid]	20 to 100
CCSc1cc(C(CO)(CCl)Cc2nncn2C)cc(N2Cc3c(cc(CN4CCC[C@H](C)C4)cc3C(F)(F)F)C2=O)n1 (stereo partly drawn) [Compound 188, 2-(4-(1-chloro-3-hydroxy-2-((4-methyl-4H-1,2,4-triazol-3-yl)methyl)propan-2-yl)-6-(ethylthio)pyridin-2-yl)-6-(((S)-3-methylpiperidin-1-yl)methyl)-4-(trifluoromethyl)isoindolin-1-one; hydrochloric acid]	100 to 1000
Cn1cnnc1CC1(c2cc(NCCC#N)nc(N3Cc4c(cc(CN5CC6(CCC6O)C5)cc4C(F)(F)F)C3=O)c2)COC1 (centres unmarked) [Compound 189, 3-((6-(6-((5-hydroxy-2-azaspiro[3.3]heptan-2-yl)methyl)-1-oxo-4-(trifluoromethyl)isoindolin-2-yl)-4-(3-((4-methyl-4H-1,2,4-triazol-3-yl)methyl)oxetan-3-yl)pyridin-2-yl)amino)propanenitrile; trifluoroacetic acid]	5.01 to 20

Next, values leading:

IC50 [nM]	SMILES
5.01 to 20	CCSc1cc(C2(Cc3nncn3C)COC2)cc(N2Cc3c(C(=O)O)cc(CN4CCC[C@H](C)C4)cc3C2=O)n1 [Compound 166, 2-[6-(ethylsulfanyl)-4-{3-[(4-methyl-1,2,4-triazol-3-yl)methyl]oxetan-3-yl}pyridin-2-yl]-6-{[(3S)-3-methylpiperidin-1-yl]methyl}-1-oxo-3H-isoindole-4-carboxylic acid; trifluoroacetic acid]
5.01 to 20	CCSc1cc(C2(Cc3nncn3C)COC2)cc(N2Cc3c(cc(CN4CCC[C@H](C)C4)cc3-c3nnn[nH]3)C2=O)n1 [Compound 167, 2-[6-(ethylsulfanyl)-4-{3-[(4-methyl-1,2,4-triazol-3-yl)methyl]oxetan-3-yl}pyridin-2-yl]-6-{[(3S)-3-methylpiperidin-1-yl]methyl}-4-(1H-1,2,3,4-tetrazol-5-yl)-3H-isoindol-1-one]
1 to 5	C[C@H]1CCCN(Cc2cc(C=O)c3c(c2)C(=O)N(c2cc(C4(Cc5nncn5C)COC4)cc(NCCC#N)n2)C3)C1 [Compound 177, 3-{[6-(4-formyl-6-{[(3S)-3-methylpiperidin-1-yl]methyl}-1-oxo-3H-isoindol-2-yl)-4-{3-[(4-methyl-1,2,4-triazol-3-yl)methyl]oxetan-3-yl}pyridin-2-yl]amino}propanenitrile]
100 to 1000	CCNc1cc(C2(Cc3nncn3C)COC2)cc(N2Cc3c(cc(CN4CCC[C@H](C)C4)cc3S(C)(=O)=O)C2=O)n1 [Compound 179, 2-[6-(ethylamino)-4-{3-[(4-methyl-1,2,4-triazol-3-yl)methyl]oxetan-3-yl}pyridin-2-yl]-4-methanesulfonyl-6-{[(3S)-3-methylpiperidin-1-yl]methyl}-3H-isoindol-1-one; formic acid]
100 to 1000	CCNc1cc(C2(Cc3nncn3C)COC2)cc(N2Cc3c(cc(CN4CCC[C@H](C)C4)cc3[S+](C)[O-])C2=O)n1 (stereo partly drawn) [Compound 180, 2-[6-(ethylamino)-4-{3-[(4-methyl-1,2,4-triazol-3-yl)methyl]oxetan-3-yl}pyridin-2-yl]-4-methanesulfinyl-6-{[(3S)-3-methylpiperidin-1-yl]methyl}-3H-isoindol-1-one]
